Source: patent US20050267073A1, “Triheterocyclic compounds, compositions, and methods for treating cancer or viral diseases” (priority 2004, published 2005)
In brackets after ≈: the same amount, converted by molar mass. Counter-ions that a name gives are not always drawn. Like-named read-outs stand apart in the source and are kept apart here.

Tests used:
[1] = test system: human prostatic adenocarcinoma cancer PC3 cells; assay: Growth of PC3 prostatic tumors in SCID mice; type: in vivo; settings: 5 consecutive intravenous injections; Compound 1 Mesylate Salt 4.84 μMoles/Kg; Compound 66 4.84 or 14.51 μMoles/Kg; FIG. 6
Protocol: The human prostatic adenocarcinoma cancer PC3 cells were purchased from the American Type Culture Collection (ATCC). These cells were confirmed to be free of mycoplasma infection. Cells were maintained in the Roswell Park Memorial Institute (RPMI), supplemented with 10% inactivated fetal bovine serum and 1% penicillin-streptomycin-L-Glutamine, under 5% carbon dioxide (CO2) at 37° C. For prostatic-tumor induction, cells were grown lower than 70% confluence in complete medium and then collected with trypsin (Bio Whittaker, Rockland, Me., USA). Cells were then centrifuged and washed 2 times in phosphate buffer solution (PBS) and resuspended in PBS at 1.5×10^6 cells/0.1 mL. PC3 cells were then transplanted subcutaneously into the flank of SCID mice (Charles River Laboratories, Wilmington, Mass., USA), as a suspension of tumor cells (1.5×10^6 cells in 100 μL PBS), under a laminar airflow hood. Eleven (11) days later, the size of each tumor was measured. […] Relative tumor size and volume was calculated as follows: length (cm)×[width (cm)]^2/2. […]

[2] = Shelf stability (precipitation) of formulation; type: physicochemical; settings: 0.6 mg/mL in 9.6% polyethylene glycol 300, 0.4% polysorbate 20 and 5% dextrose
Protocol: (§4) To determine whether a compound is soluble in a solution, the solution was filtered on 0.2 μM polytetrafluoroethylene filters (Whatman Inc. Clifton, N.J., USA) and the compound concentration in the filtrate was measured by LC/MS and compared to the expected concentration.

[3] = physchem; settings: water
Protocol: as §4

[4] = test system: calf intestinal alkaline phosphatase; assay: Conversion of phosphate pro-drug by calf intestinal alkaline phosphatase in vitro; type: in vitro ADME; settings: 15 μM, 0.02 U/100 μL enzyme, pH 7.4; 30, 60, 120 minutes; FIG. 5
Protocol: (§1) The conversion into biologically active drug of phosphate pro-drugs by calf intestinal alkaline phosphatase and human placental alkaline phosphatase was measured in vitro using purified enzymes. Purified calf intestinal alkaline phosphatase (Roche Diagnostic Inc. Laval, Quebec, Canada) or human placental alkaline phosphatase (Sigma-Aldrich Canada Ltd. Oakville, Ontario, Canada) was added at a concentration of 0.02 U/100 μL to a solution containing 15 μM of Compound 66, 20 mM Tris-HCl, pH 7.4 and 0.9% NaCl. The solutions were incubated for 30, 60 or 120 minutes. A solution containing 15 μM of Compound 66, 20 mM Tris-HCl, pH 7.4 and 0.9% NaCl was used as a reference (time=0 minutes). To each solution, an equal volume (100 μL) of ice-cold acetonitrile was added, and then the mixture was vortexed and transferred to glass vials. A standard concentration curve of the pro-drug and the drug was prepared in 10 mM Tris-HCl, pH 7.4, 0.45% NaCl and 50% acetonitrile. All samples were immediately analyzed by LC/MS.

[5] = target: T1, human placental alkaline phosphatase (Homo sapiens, UniProt P05187); assay: Conversion of phosphate pro-drug by human placental alkaline phosphatase in vitro; type: in vitro ADME; settings: 15 μM, 0.02 U/100 μL enzyme, pH 7.4; 30, 60, 120 minutes; FIG. 4
T1 construct: purchased Sigma-Aldrich Canada Ltd
Protocol: as §1

[6] = type: in vivo, CB17 SCID/SCID mice
Protocol: Treatments started on day fourteen after C33A cells transplantation. […]. The negative control group was treated with vehicle alone. […].
Observation continued for 40 days after initial tumor implantation.

[7] = test system: H1299 human non-small cell lung cancer cells; assay: Cell viability by cellular ATP levels (ViaLight), H1299 cells; type: cell-based; settings: Homo sapiens
From the text: (§2) […]. […] […]. The total dimethyl sulfoxide on the cells was 1%. […] […].
(§3) As depicted in Table 4, these compounds were efficient in decreasing cellular ATP levels in HI 299 and C33A cancer cell lines. Nevertheless, these compounds are believed to have utility in the in vivo methods of the invention, i.e., treatment and prevention of cancer and viral infections, respectively. It should be noted that, although this cell-based assay is believed to be indicative of anti-oncogenic activity in vivo, it is not the only useful assay for evaluating the anti-oncogenic activity of Triheterocyclic Compounds of the invention. In addition, the anti-viral and other biological activity of compounds of the invention can be determined and evaluated in other assay systems known to the skilled artisan.

[8] = test system: C33A cervical carcinoma cells; assay: cells; type: cell-based; settings: Homo sapiens, C-33-A, read-out: IC50 (μM) C33A, Effect on Cancer Cells Viability
From the text: as §2, §3

[9] = NCI-H1299, H1299, cellular ATP levels as described in Example 2, read-out: IC50 (μM) H1299, Effect on Cancer Cells Viability
[10] = C33A, cellular ATP levels as described in Example 2
[11] = NCI-H1299, read-out: IC50 (μM) H1299, Effect on Cancer Cells Viability

T1 sequence (P05187 23-506): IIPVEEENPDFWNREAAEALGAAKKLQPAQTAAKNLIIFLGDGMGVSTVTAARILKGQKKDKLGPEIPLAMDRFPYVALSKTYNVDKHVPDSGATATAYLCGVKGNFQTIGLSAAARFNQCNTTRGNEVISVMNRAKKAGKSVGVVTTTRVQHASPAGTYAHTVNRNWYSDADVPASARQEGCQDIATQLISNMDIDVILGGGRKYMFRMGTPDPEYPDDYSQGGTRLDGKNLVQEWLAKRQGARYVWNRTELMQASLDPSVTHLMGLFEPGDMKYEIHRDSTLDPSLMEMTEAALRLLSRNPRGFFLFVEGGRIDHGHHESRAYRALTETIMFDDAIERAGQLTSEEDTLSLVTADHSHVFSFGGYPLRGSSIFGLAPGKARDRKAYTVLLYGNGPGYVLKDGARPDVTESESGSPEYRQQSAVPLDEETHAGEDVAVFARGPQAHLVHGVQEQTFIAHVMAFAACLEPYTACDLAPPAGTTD

Row | IC50 [7, 9] | IC50 [8, 10] | SMILES | also measured
1 |  |  | COC1=CC(c2cc3ccccc3[nH]2)=N/C1=C\c1[nH]c(C)cc1C [Compound 1 Mesylate Salt] | growth of prostatic tumors in mice [1]: significantly reduce the growth of prostatic tumors; precipitation of formulation [2]: no evidence of precipitation 72 hours after its preparation
2 |  |  | COC1=CC(c2cc3ccccc3n2C(=O)CC(C)(C)c2c(C)cccc2OP(=O)(O)O)=N/C1=C/c1[nH]c(C)cc1C [Compound 66] | solubility [3]: 10000 µg/mL (≈ 17 mM); conversion of pro-drug into Compound 1 [4]: convert a fraction of the pro-drug; growth of prostatic tumors in mice [1]: significantly reduce the growth of prostatic tumors; conversion of pro-drug into Compound 1 [5]: convert a fraction of the pro-drug
3 |  |  | N.N.[Cl][Pt][Cl] [cisplatin, reference compound] | deaths ([6]; cisplatin 4 mg/kg IP, days 29 and 32): Two mice died; weight loss ([6]; day 29, cisplatin 4 mg/kg IP once every 3 days for five times): 28%
4 | 2.95 µM | 3.6 µM | COC1=CC(c2[nH]c3ccccc3c2C(=O)c2ccsc2)=N/C1=C\c1[nH]c(C)cc1C [Compound 12, {2-[5-(3,5-Dimethyl-1H-pyrrol-2-ylmethylene)-4-methoxy-5H-pyrrol-2-yl]-1H-indol-3-yl}-thiophen-3-yl-methanone] | 
5 | 0.342 µM | 0.226 µM | Cc1cc(C)c(/C=C2\N=C(c3cc4c(OC(=O)OC(C)(C)C)cccc4[nH]3)C=C2OC(C)C)[nH]1 [Compound 38, Carbonic acid tert-butyl ester 2-[5-(3,5-dimethyl-1H-pyrrol-2-ylmethylene)-4-isopropoxy-5H-pyrrol-2-yl]-1H-indol-4-yl ester] | 
6 |  |  | CCOC(=O)COC1=CC(c2cc3ccccc3[nH]2)=N/C1=C\c1[nH]c(C)cc1C [Compound 53, [2-(3,5-Dimethyl-1H-pyrrol-2-ylmethylene)-5-(1H-indol-2-yl)-2H-pyrrol-3-yloxy]-acetic acid ethyl ester] | IC50 [7, 11]: 10.6 µM; IC50 [8]: 10.2 µM
7 | 3.35 µM | 1.79 µM | COC1=CC(c2cc3ccccc3[nH]2)=N/C1=C\c1[nH]c(C)c(CCCO)c1C [Compound 41, 3-{5-[5-(1H-indol-2-yl)-3-methoxy-pyrrol-2-ylidenemethyl]-2,4-dimethyl-1H-pyrrol-3-yl}-propan-1-ol] | 
8 | 0.215 µM | 0.25 µM | COC1=CC(c2cc3cc(OC)c(OC)cc3[nH]2)=N/C1=C\c1[nH]c(C)cc1C [Compound 4, 2-[5-(3,5-Dimethyl-1H-pyrrol-2-ylmethylene)-4-methoxy-5H-pyrrol-2-yl]-5,6-dimethoxy-1H-indole] | 
9 | 0.53 µM | 0.65 µM | COC1=CC(c2cc3ccccc3[nH]2)=N/C1=C\c1[nH]c(C)c(I)c1C [Compound 2, 2-[5-(4-Iodo-3,5-dimethyl-1H-pyrrol-2-ylmethylene)-4-methoxy-5H-pyrrol-2-yl]-1H-indole] | 
10 | 5.9 µM | 3.75 µM | Cc1cc(C)c(/C=C2\N=C(c3cc4c(O)cccc4[nH]3)C=C2OC(C)C)[nH]1 [Compound 57, 2-[5-(3,5-Dimethyl-1H-pyrrol-2-ylmethylene)-4-isopropoxy-5H-pyrrol-2-yl]-1H-indol-4-ol] | 
11 |  |  | COC(=O)CCc1c(C)[nH]c(/C=C2\N=C(c3cc4ccccc4[nH]3)C=C2OC)c1C [Compound 63, 3-{5-[5-(1H-Indol-2-yl)-3-methoxy-pyrrol-2-ylidenemethyl]-2,4-dimethyl-1H-pyrrol-3-yI}-propionic acid methyl ester] | IC50 [7, 11]: 0.753 µM; IC50 [8]: 0.548 µM
12 | 3 µM | 2 µM | COC1=CC(c2cc3ccccc3n2C(=O)OC(C)(C)C)=N/C1=C\c1[nH]c(C)cc1C [Compound 49, 2-[5-(3,5-Dimethyl-1H-pyrrol-2-ylmethylene)-4-methoxy-5H-pyrrol-2-yl]-indole-1-carboxylic acid tert-butyl ester] | 
13 | 0.197 µM | 0.167 µM | COC1=CC(c2cc3ccccc3n2C(=O)C(C)C)=N/C1=C\c1[nH]c(C)cc1C [Compound 35, 1-{2-[5-(3,5-Dimethyl-1H-pyrrol-2-ylmethylene)-4-methoxy-5H-pyrrol-2-yI]-indol-1-yl}-2-methyl-propan-1-one] | 
14 | 4.43 µM | 2.21 µM | COC1=C(CO)C(c2[nH]c3ccccc3c2CNCCO)=N/C1=C\c1[nH]c(C)cc1C [Compound 9, 2-({2-[5-(3,5-Dimethyl-1H-pyrrol-2-ylmethylene)-3-hydroxymethyl-4-methoxy-5H-pyrrol-2-yl]-1H-indol-3-ylmethyl}-amino)-ethanol] | 
15 | 8.46 µM | 7.17 µM | COC1=CC(c2cc3ccccc3n2CCO)=N/C1=C\c1[nH]c(C)cc1C [Compound 40, 2-{2-[5-(3,5-Dimethyl-1H-pyrrol-2-ylmethylene)-4-methoxy-5H-pyrrol-2-yl]-indol-1-yl}-ethanol] | 
16 | 0.173 µM | 0.173 µM | COC1=CC(c2cc3ccccc3n2C(=O)c2ccc(Br)cc2)=N/C1=C/c1[nH]c(C)cc1C [Compound 55, (4-Bromo-phenyl)-{2-[5-(3,5-dimethyl-1H-pyrrol-2-ylmethylene)-4-methoxy-5H-pyrrol-2-yl]-indol-1-yl}-methanone] | 
17 | 0.493 µM | 0.25 µM | CNCc1c(C2=N/C(=C\c3[nH]c(C)cc3C)C(OC)=C2CO)[nH]c2ccccc12 [Compound 10, [5-(3,5-Dimethyl-1H-pyrrol-2-ylmethylene)-4-methoxy-2-(3-methylaminomethyl-1H-indol-2-yl)-5H-pyrrol-3-yl]-methanol] | 
18 | 1.73 µM | 2.23 µM | COC1=CC(c2cc3cc(Br)ccc3[nH]2)=N/C1=C\c1[nH]c(C)cc1C [Compound 7, 5-Bromo-2-[5-(3,5-dimethyl-1H-pyrrol-2-ylmethylene)-4-methoxy-5H-pyrrol-2-yl]-1H-indole] | 
19 | 0.983 µM | 0.307 µM | COC1=C(CO)C(c2[nH]c3ccccc3c2CNC(C)C)=N/C1=C\c1[nH]c(C)cc1C [Compound 11, {5-(3,5-Dimethyl-1H-pyrrol-2-ylmethylene)-2-[3-(isopropylamino-methyl)-1H-indol-2-yl]-4-methoxy-5H-pyrrol-3-yl}-methanol] | 
